Test results reported in PMC4226669, “Anti-cancer potency of tasquinimod is enhanced via albumin-binding facilitating increased uptake in the tumor microenvironment” (Oncotarget, 2014).
Like-named read-outs stand apart in the source and are kept apart here.

Experiments:
[1] = Drug binding in 10% FBS supplemented media; format: in vitro ADME, bovine; settings: 1 μM in 10% FBS supplemented media
From the text: (§1) Since tasquinimod binds to both S100A9 and HDAC4 proteins with high affinities and since S100A9 has both an extracellular and intracellular location while HDAC4 in prostate cancer cells is in the cell nucleus, it is important to evaluate whether tasquinimod is capable of entering cells or whether it only associates with extracellular plasma membrane components. To resolve this question, an in vitro approach was taken using three human prostate cancer cells (i.e., CWR-22Rv1, LAPC-4, and LNCaP) and human umbilical vein endothelial (HUVEC) cells. When 1 μM tasquinimod is added to 10% fetal bovine serum (FBS) supplemented media, there is sufficient albumin to bind 80% of the drug so that the protein-free concentration of tasquinimod in such media is only 0.2 μM. Preliminary studies documented that even after 48 hours of exposure of HUVEC and each of the 3 prostate cancer cell lines to 1 μM at confluent cell density, there was < 15% metabolism of the parental tasquinimod drug with the major metabolite being the O-demethylated quinoline compound.

[2] = test system: HUVEC and CWR-22Rv1, LAPC-4, LNCaP cells; assay: In vitro cell metabolism in HUVEC and 3 prostate cancer cell lines; format: in vitro ADME, human; settings: 48 hours, 1 μM, confluent cell density
From the text: as §1
For in vitro studies, cells were incubated with 1μM ^14C-labeled tasquinimod for indicated time period and then the media and cells or cell nuclei separately harvested, deproteinated with acetonitrile, and metabolites separated by HPLC and quantitated as described above.

[3] = Tissue distribution and metabolites in nude mice bearing CWR-22Rv1 cancers; format: in vivo, mouse; settings: for concentration at 4 h: male, nude, mouse
Procedure: To determine the concentration of metabolites, nude mice bearing CWR-22Rv1 prostate cancers were orally administered with 5 mg/kg of ^14C- radiolabeled tasquinimod and 4 and 24 hours later, blood plasma and liver, kidney, and cancer tissue harvested and analyzed for determination of metabolites. […] The predominant metabolite is the O-demethylated quinoline compound, Figure 2A&B, but the concentration of the hydroxylated aromatic quinoline and the N-demethylated quinoline compounds, along with the O-demethylated quinoline compound are also higher in the liver than the blood at the time point studied, Figure 2B. Also in the kidney 40% of the drug is present as metabolites, with the concentration of the hydroxylated aromatic quinoline and the O-demethylated quinoline compounds being higher than in the blood, Figure 2B. In contrast, within the cancer > 80% of the total concentration of drug is present as parent tasquinimod, Figure 2B. Only the O-demethylated quinoline compound is present at a higher concentration in the cancer than blood, Figure 2B. The plasma concentration of total metabolites is < 10% at 4 hours, Figure 2B, and 24 hours post oral dosing with 5 mg/kg, Figure 2A.
Male nude mice bearing 200-300mm^3 CWR-22Rv1 cancers were given ^14C-labeled tasquinimod at a dose of 5 mg/kg via oral gavage. At times ranging from 30 min to 24 hour, groups of 4-6 mice were anaesthetized with ketamine and 1 ml of heparinized blood collected by cardiac puncture, followed by subsequent cardiac perfusion of saline to remove blood associated drug. An aliquot of liver, kidney, and cancer was removed, weighed and then homogenized. The radioactivity in 10 μL aliquots of tissue homogenates and blood plasma was determined using a liquid scintillation counter and used to calculate the total amount of tasquinimod plus its metabolites per gram of tissue or per ml of blood. The remaining sample volume was deproteinated with acetonitrile and the radioactivity of an aliquot of the supernatant determined and the remaining supernatant lyophilized, resuspended initially with 0.1mL dimethyl sulfoxide and diluted by the addition of 0.9mL deionized water prior to injection into the HPLC. The HPLC system consisted of Waters pumps using a Waters gradient controller to deliver mobile phase at a flow rate of 1mL per minute using a Supelcosil ABZ+ C18 column that is 150mm long by 4.6mm diameter and has 5μm particle size. The metabolites were separated using a linear gradient in which the starting mobile phase was 35% acetonitrile: 65% water: 0.1% Trifluoroacetic acid (TFA) increasing to 50% acetonitrile: 50% water: 0.1%TFA over 25 minutes, and then increased rapidly to 98% acetonitrile: 2% water: 0.1%TFA and held until 33 minutes before it is returned to the initial conditions for the next run. Fractions were collected and the radioactivity determined by scintillation counting. As controls, the individual elution time of non-radiolabeled standard solutions of the various tasquinimod metabolites was determined using UV absorption at 215nm. The results were expressed as concentration based upon tissue volume, assuming 1gram wet weight equals 1ml, or normalized to tissue vascular volume.

[4] = Protein binding fraction (PBF) in nude mouse plasma; format: in vitro ADME
Procedure: (§2) Mice were orally gavaged with ^14C-labeled tasquinimod at a dose of 5mg/kg and 1 hour later blood collected and plasma isolated and the PBF determined as described previously using Centrifree® YM-30 centrifuge filter unit with a molecular weight cutoff of 30K (i.e., Millipore, Billerica,MO).

[5] = Protein binding fraction (PBF) in bovine fetal serum; format: in vitro ADME; settings: bovine fetal serum (FBS), 1-50 μM radiolabeled tasquinimod
Procedure: An explanation for this highly restricted cellular uptake in the blood is provided by the fact that protein binding fraction (PBF) for tasquinimod in nude mouse plasma is 98 ± 1%. This is not a nude mouse specific effect since incubation of 1-50 μM radiolabeled tasquinimod with human plasma or bovine fetal serum (FBS) results in a PBF of ~ 98%.
as §2

COc1cccc2c1c(O)c(C(=O)N(C)c1ccc(C(F)(F)F)cc1)c(=O)n2C [Tasquinimod]
drug bound by albumin in media [1]: 80%
protein-free concentration in media [1]: 0.2 µM
metabolism of the parental drug [2]: < 15%
prostate cancer tissue concentration relative to liver or kidney, normalized to percent vascular volume ([3]; 5 mg/kg oral): 3-5 fold
time to maximum total drug concentration in liver, kidney and cancer ([3]; 5 mg/kg oral, CWR-22Rv1 tumor bearing mice): ≤ 5 h
total drug within the cancer present as parent tasquinimod ([3]; CWR-22Rv1 cancer, 4 hours post 5 mg/kg oral): > 80%
percentage of total drug in CWR-22Rv1 cancer ([3]; CWR-22Rv1 cancer, 4 hours post oral 5mg/kg tasquinimod): 83+/-6%
percentage of total drug in kidney ([3]; kidney, 4 hours post oral 5mg/kg tasquinimod): 60+/-7%
percentage of total drug in liver ([3]; liver, 4 hours post oral 5mg/kg tasquinimod): 29+/-5%
concentration at 4 h ([3]; CWR-22Rv1 cancer tissue, CWR-22Rv1 cancer, 4 hours post oral 5mg/kg tasquinimod, 1gm tissue = 1ml, read-out: concentration in CWR-22Rv1 cancer): 2.24 µM
concentration at 4 h ([3]; kidney, 4 hours post oral 5mg/kg tasquinimod, 1gm tissue = 1ml, read-out: concentration in kidney): 2.3 µM
concentration at 4 h ([3]; liver, 4 hours post oral 5mg/kg tasquinimod, 1gm tissue = 1ml, read-out: concentration in liver): 3.77 µM
concentration at 4 h ([3]; plasma, 4 hours post oral 5mg/kg tasquinimod, read-out: concentration in plasma): 5.58 µM
percentage of total drug in plasma ([3]; plasma, 4 hours post oral 5mg/kg tasquinimod): 93+/-6%
plasma tasquinimod that is albumin bound [4]: 98%
total plasma tasquinimod that is non-protein bound ([4]; following oral dosing): ~ 2%
fraction unbound at 1 h ([4]; oral, 5 mg/kg, nude mouse plasma): 0.02
fraction unbound [5]: ~0.02
